Test results as given in patent US10183953B2, “Substituted 2-azabicycles and their use as orexin receptor modulators” (Janssen Pharmaceutica NV, priority 2013, dated 2019).

Key:
rat orexin 1 receptor = rat orexin 1 receptor (Rattus norvegicus, UniProt P56718); experiment: Rat orexin 1 receptor radioligand binding (competitive, HEK293 membranes); conditions: rat OX1 receptor binding; averages from between 2-20 runs; read-out: rOX1 Ki
Description: (§1) The in vitro affinity of the compounds of the invention for the rat/human orexin 1 and human orexin 2 receptors was determined by competitive radioligand binding using [^3H]
(§2) Data are analyzed using pc-Sandy macro and graphed on Graphpad Prism 5. For analysis, each concentration point is averaged from triplicate values and the averaged values are plotted on Graphpad Prism. The IC50 was determined by applying the following equation (GraphPad Prism 5.0, SanDiego) for one site competition where X=log (concentration) and Y=specific binding. […] Graphpad Prism calculates Ki value from IC50 and the pre-determined Kd values for [^3H]-(1-(5-(2-fluoro-phenyl)-2-methyl-thiazol-4-yl)-1-((S)-2-(5-phenyl-(1,3,4)oxadiazol-2-ylmethyl)-pyrrolidin-1-yl)-methanone) and [3H]-EMPA. […]
(§3) After centrifugation (2K×G, 5 min at 4° C.), the supernatant was aspirated and the pellets frozen and stored at −80° C. […] Total and nonspecific binding was determined in the absence and presence of 10 μM almorexant. […] Plates were dried in 55° C. oven for 60 min, scintillation fluid was added, and the radioactivity was counted on a Topcount (Packard).

human orexin 2 receptor = human orexin 2 receptor (Homo sapiens (Human), UniProt O43614); experiment: Human orexin 2 receptor radioligand binding ([3H]-EMPA, HEK293 membranes); conditions: human OX2 receptor binding; averages from between 2-20 runs; read-out: hOX2 Ki
Description: as §1, §2
HEK293 stably expressing human orexin 2 receptor (Genebank accession number NM_001526) were grown to confluency in DMEM (Hyclone, cat #SH30022), 10% FBS, 1×Pen/Strep, 1× NaPyruvate, 10 mM HEPES, 600 ug/ml G418 media on 150 cm^2 tissue culture plates, washed with 5 mM EDTA in PBS (HyClone Dulbecco's Phosphate Buffered Saline 1× with Calcium and Magnesium, Cat #SH30264.01, hereafter referred to simply as PBS) and scraped into 50 ml tubes. […] Total and nonspecific binding was determined in the absence and presence of 10 μM almorexant. […]

human orexin 1 receptor = human orexin 1 receptor (Homo sapiens (Human), UniProt O43613); experiment: Human orexin 1 receptor radioligand binding (competitive, CHO membranes); conditions: human OX1 receptor binding; averages from between 2-20 runs; read-out: hOX1 Ki
Description: as §1, §2, §3

Chain of human orexin 1 receptor (O43613 whole entry): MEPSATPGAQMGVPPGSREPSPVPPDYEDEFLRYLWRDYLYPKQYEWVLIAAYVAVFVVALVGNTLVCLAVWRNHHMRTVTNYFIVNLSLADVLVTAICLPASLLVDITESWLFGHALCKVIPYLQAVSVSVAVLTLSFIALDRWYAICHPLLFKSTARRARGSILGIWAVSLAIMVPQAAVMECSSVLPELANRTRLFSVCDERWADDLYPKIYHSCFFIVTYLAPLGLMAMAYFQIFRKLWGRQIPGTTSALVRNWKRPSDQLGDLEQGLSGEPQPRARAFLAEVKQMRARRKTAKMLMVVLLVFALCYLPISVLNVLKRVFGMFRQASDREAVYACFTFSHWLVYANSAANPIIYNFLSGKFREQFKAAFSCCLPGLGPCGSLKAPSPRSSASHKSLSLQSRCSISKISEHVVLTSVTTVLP
Chain of human orexin 2 receptor (O43614 whole entry): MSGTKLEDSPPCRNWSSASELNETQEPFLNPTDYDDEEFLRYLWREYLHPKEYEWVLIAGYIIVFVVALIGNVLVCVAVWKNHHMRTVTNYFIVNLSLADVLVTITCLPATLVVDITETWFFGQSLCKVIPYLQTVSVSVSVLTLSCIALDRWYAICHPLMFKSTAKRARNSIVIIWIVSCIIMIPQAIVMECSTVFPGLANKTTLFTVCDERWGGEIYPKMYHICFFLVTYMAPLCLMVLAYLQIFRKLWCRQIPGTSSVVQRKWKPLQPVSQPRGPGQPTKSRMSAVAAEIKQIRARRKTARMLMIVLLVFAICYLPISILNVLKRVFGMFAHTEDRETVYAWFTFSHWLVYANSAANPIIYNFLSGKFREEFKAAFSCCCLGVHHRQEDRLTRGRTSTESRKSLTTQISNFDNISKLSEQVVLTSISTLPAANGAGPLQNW

Ki (rat orexin 1 receptor): 9 nM
Ki (human orexin 2 receptor): 456 nM
Ki (human orexin 1 receptor): 7 nM
Structure (SMILES): O=C(c1cccc(F)c1-c1ncccn1)N1C[C@@H]2CC[C@H]1[C@H](Nc1cnc(C(F)(F)F)cn1)C2 [Example 80, (3-fluoro-2-(pyrimidin-2-yl)phenyl)((1S,4R,6R)-6-((5-(trifluoromethyl)pyrazin-2-yl)amino)-2-azabicyclo[2.2.2]octan-2-yl)methanone]
